Results: paper PMC12655637, “Design, Synthesis, and Mechanistic Study of Novel Ciprofloxacin/Thiazole Chalcone Hybrids as Potential Anticancer Agents” (Pharmaceuticals, 2025)

Tests used:
Assay in all cases: NCI-60 screening, one-dose (10 µM) and five-dose, SRB
[1] = tested on: DU-145; type: cell-based, human; conditions: Homo sapiens; 10 μM; DU-145, Prostate Cancer; read-out: Growth percentage
[2] = tested on: NCI-H226; type: cell-based, human; conditions: Homo sapiens; 10 μM; NCI-H226, Non-Small-Cell Lung Cancer; read-out: Growth percentage
[3] = tested on: SF-268; type: cell-based, human; conditions: Homo sapiens; 10 μM; SF-268, CNS Cancer; read-out: Growth percentage
[4] = tested on: HOP-92; type: cell-based, human; conditions: Homo sapiens; 10 μM; HOP-92, Non-Small-Cell Lung Cancer; read-out: Growth percentage
[5] = tested on: CCRF-CEM; type: cell-based, human; conditions: Homo sapiens, 10 μM, Leukemia, read-out: Growth percentage
[6] = tested on: SF-295; type: cell-based, human; conditions: Homo sapiens; 10 μM; SF-295, CNS Cancer; read-out: Growth percentage
[7] = tested on: SNB-19; type: cell-based; conditions: Homo sapiens; 10 μM; SNB-19, CNS Cancer; read-out: Growth percentage
[8] = tested on: ACHN; type: cell-based, human; conditions: Homo sapiens, 10 μM, Renal Cancer, read-out: Growth percentage
[9] = tested on: HCC-2998; type: cell-based, human; conditions: Homo sapiens; 10 μM; HCC-2998, Colon Cancer; read-out: Growth percentage
[10] = tested on: MDA-MB-435; type: cell-based; conditions: Homo sapiens, MDA-MB-435, read-out: Growth percentage, 10 μM; MDA-MB-435, Melanoma
[11] = tested on: HCT-15; type: cell-based, human; conditions: Homo sapiens; 10 μM; HCT-15, Colon Cancer; read-out: Growth percentage
[12] = tested on: LOX IMVI; type: cell-based, human; conditions: Homo sapiens, 10 μM, Melanoma, read-out: Growth percentage
[13] = tested on: SK-MEL-5; type: cell-based, human; conditions: Homo sapiens; 10 μM; SK-MEL-5, Melanoma; read-out: Growth percentage
[14] = tested on: K-562; type: cell-based, human; conditions: Homo sapiens, K562, 10 μM; K-562, Leukemia; read-out: Growth percentage
[15] = tested on: SK-MEL-28; type: cell-based, human; conditions: Homo sapiens; 10 μM; SK-MEL-28, Melanoma; read-out: Growth percentage
[16] = tested on: KM12; type: cell-based, human; conditions: Homo sapiens, KM12, 10 μM; KM12, Colon Cancer; read-out: Growth percentage
[17] = tested on: OVCAR-3; type: cell-based; conditions: Homo sapiens; 10 μM; OVCAR-3, Ovarian Cancer; read-out: Growth percentage
[18] = tested on: COLO 205; type: cell-based, human; conditions: Homo sapiens; 10 μM; COLO 205, Colon Cancer; read-out: Growth percentage
[19] = tested on: OVCAR-4; type: cell-based, human; conditions: Homo sapiens; 10 μM; OVCAR-4, Ovarian Cancer; read-out: Growth percentage
[20] = tested on: A498; type: cell-based; conditions: Homo sapiens, A498, 10 μM; A498, Renal Cancer; read-out: Growth percentage
[21] = tested on: SF-539; type: cell-based, human; conditions: Homo sapiens, SF-539, 10 μM; SF-539, CNS Cancer; read-out: Growth percentage
[22] = tested on: CAKI-1; type: cell-based; conditions: Homo sapiens; 10 μM; CAKI-1, Renal Cancer; read-out: Growth percentage
[23] = tested on: BT-549; type: cell-based; conditions: Homo sapiens; 10 μM; BT-549, Breast Cancer; read-out: Growth percentage
[24] = tested on: SK-MEL-2; type: cell-based, human; conditions: Homo sapiens; 10 μM; SK-MEL-2, Melanoma; read-out: Growth percentage
[25] = tested on: NCI-H522; type: cell-based, human; conditions: Homo sapiens; 10 μM; NCI-H522, Non-Small-Cell Lung Cancer; read-out: Growth percentage
[26] = tested on: HS 578T; type: cell-based, human; conditions: Homo sapiens, 10 μM, Breast Cancer, read-out: Growth percentage
[27] = tested on: TK-10; type: cell-based, human; conditions: Homo sapiens; 10 μM; TK-10, Renal Cancer; read-out: Growth percentage
[28] = tested on: EKVX; type: cell-based, human; conditions: Homo sapiens, 10 μM, Non-Small-Cell Lung Cancer, read-out: Growth percentage
[29] = tested on: SNB-75; type: cell-based, human; conditions: Homo sapiens; 10 μM; SNB-75, CNS Cancer; read-out: Growth percentage

SMILES | activity at 10 µM [1] | activity at 10 µM [2] | activity at 10 µM [3] | activity at 10 µM [4] | activity at 10 µM [5] | activity at 10 µM [6] | activity at 10 µM [7] | activity at 10 µM [8] | activity at 10 µM [9] | activity at 10 µM [10] | activity at 10 µM [11] | activity at 10 µM [12] | activity at 10 µM [13] | activity at 10 µM [14] | activity at 10 µM [15] | activity at 10 µM [16] | activity at 10 µM [17] | activity at 10 µM [18] | activity at 10 µM [19] | activity at 10 µM [20] | other results
CC(=O)c1sc(SCC(=O)N2CCN(c3cc4c(cc3F)c(=O)c(C(=O)O)cn4C3CC3)CC2)nc1C [Compound 4a, 7-(4-(2-((5-Acetyl-4-methylthiazol-2-yl)thio)acetyl)piperazin-1-yl)-1-cyclopropyl-6-fluoro-4-oxo-1,4-dihydroquinoline-3-carboxylic Acid] | 95.3% | 117% | 103% | 105% | 96.2% | 94.2% | 102% | 98.3% | 96.6% | 99.4% | 102% | 106% | 89% | 123% | 96.7% | 102% | 98.8% | 118% | 95.1% | 104% | activity at 10 µM [21]: 86.4%; activity at 10 µM [22]: 99.2%; activity at 10 µM [23]: 98.3%; activity at 10 µM [24]: 97.4%; activity at 10 µM [25]: 98.9%; activity at 10 µM [26]: 87.4%; activity at 10 µM [27]: 97.9%; activity at 10 µM [28]: 104%; activity at 10 µM [29]: 79.2%
COc1cccc(/C=C/C(=O)c2sc(SCC(=O)N3CCN(c4cc5c(cc4F)c(=O)c(C(=O)O)cn5C4CC4)CC3)nc2C)c1OC [Compound 4k, (E)-1-Cyclopropyl-7-(4-(2-((5-(3-(2,3-dimethoxyphenyl)acryloyl)-4-methylthiazol-2-yl)thio)acetyl)piperazin-1-yl)-6-fluoro-4-oxo-1,4-dihydroquinoline-3-carboxylic Acid] | 98% | 102% | 109% | 122% | 72% | 97.4% | 87.2% | 105% | 76.8% | 53.2% | 64.5% | 104% | 83% | 133% | 100% | 4.4% | 84.5% | 126% | 118% | 90.9% | activity at 10 µM [22]: 107%; activity at 10 µM [23]: 63.3%; activity at 10 µM [24]: 93.4%; activity at 10 µM [25]: 104%; activity at 10 µM [26]: 92.8%; activity at 10 µM [27]: 105%; activity at 10 µM [28]: 96.9%; activity at 10 µM [29]: 100%
